The values below come from paper PMC12339982 (Nature Communications, 2025).

The target in one experiment is T1, TauT G62A mutant (Homo sapiens, UniProt P31641, G62A).
T1 sequence (P31641 1-620 G62A): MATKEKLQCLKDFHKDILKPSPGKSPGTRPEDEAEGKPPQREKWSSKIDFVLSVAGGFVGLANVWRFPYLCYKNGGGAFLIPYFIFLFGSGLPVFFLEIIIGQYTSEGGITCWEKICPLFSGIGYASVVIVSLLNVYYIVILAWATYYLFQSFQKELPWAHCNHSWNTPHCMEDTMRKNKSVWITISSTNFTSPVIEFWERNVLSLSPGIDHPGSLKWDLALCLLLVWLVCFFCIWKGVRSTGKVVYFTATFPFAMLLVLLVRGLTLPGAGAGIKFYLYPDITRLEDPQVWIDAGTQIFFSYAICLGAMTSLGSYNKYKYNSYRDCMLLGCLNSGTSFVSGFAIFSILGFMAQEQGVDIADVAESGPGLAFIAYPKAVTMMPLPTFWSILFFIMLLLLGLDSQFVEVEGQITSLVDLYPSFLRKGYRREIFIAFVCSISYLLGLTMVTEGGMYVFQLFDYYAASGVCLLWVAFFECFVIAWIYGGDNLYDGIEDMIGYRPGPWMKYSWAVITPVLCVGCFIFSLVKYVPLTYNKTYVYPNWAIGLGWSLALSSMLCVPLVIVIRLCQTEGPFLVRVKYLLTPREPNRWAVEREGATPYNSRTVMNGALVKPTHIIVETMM
The experiment in a line: MST binding, TauT G62A. The settings on record: mean ± s.e.m., n=3.

In experiment [1] the test system is TauT^WT and variants. The experiment in a line: [3H]γ-aminobutyric acid uptake by TauT^WT and variants in HEK293T cells. Type of experiment: cell-based, human. The settings on record: amino acid substitutions in Gly57, Phe58, Leu306.
In experiment [2] the target is T2, TauT^WT and variants (Homo sapiens, UniProt P31641, E406C).
T2 sequence (P31641 1-620 E406C): T1 sequence (P31641 1-620 G62A) with A62G, E406C
The experiment is described as above. Type of experiment: cell-based. The settings on record: mutation Glu406Cys.

The test system of experiment [3] is TauT^WT and variants. Description: [3H]taurine uptake. The format is cell-based, human.
Experiment [4] has as its target T3, TauT^WT and variants (Homo sapiens, UniProt P31641, L134C).
T3 sequence (P31641 1-620 L134C): T1 sequence (P31641 1-620 G62A) with A62G, L134C
Description: [3H]taurine uptake. Type of experiment: cell-based. To be noted: mutation Leu134Cys.

Another experiment has as its target T4, TauT^EM (Homo sapiens, UniProt P31641, D486N/D490E/E493R/G491D/K319H/L488F/N487R/R499P/S322V/Y320N/Y489S/Y498F).
T4 sequence (P31641 1-620 K319H/Y320N/S322V/D486N/N487R/L488F/Y489S/D490E/G491D/E493R/Y498F/R499P): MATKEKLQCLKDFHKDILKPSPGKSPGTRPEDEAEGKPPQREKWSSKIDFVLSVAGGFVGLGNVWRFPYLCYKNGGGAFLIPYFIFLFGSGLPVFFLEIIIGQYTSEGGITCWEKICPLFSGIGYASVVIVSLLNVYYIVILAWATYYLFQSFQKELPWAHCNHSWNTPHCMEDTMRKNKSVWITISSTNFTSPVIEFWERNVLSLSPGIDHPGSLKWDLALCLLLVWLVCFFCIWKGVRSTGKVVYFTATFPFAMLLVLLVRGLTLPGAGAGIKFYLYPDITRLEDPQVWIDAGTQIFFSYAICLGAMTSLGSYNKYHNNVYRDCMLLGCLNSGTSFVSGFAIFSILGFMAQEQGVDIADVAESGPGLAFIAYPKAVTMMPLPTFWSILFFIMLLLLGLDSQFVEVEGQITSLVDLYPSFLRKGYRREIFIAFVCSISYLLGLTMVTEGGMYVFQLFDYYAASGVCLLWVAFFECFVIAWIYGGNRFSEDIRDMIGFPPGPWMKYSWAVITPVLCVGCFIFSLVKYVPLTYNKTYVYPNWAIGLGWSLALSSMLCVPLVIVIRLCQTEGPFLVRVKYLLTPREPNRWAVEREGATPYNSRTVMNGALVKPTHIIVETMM
Description: MST binding, TauT^EM. The settings on record: compared with TauT^WT.

Numbering of substitutions follows the chain as printed.

In the case of `[H]/N=C(/N)NCC(=O)O` [GAA, guanidinoacetate], at TauT G62A mutant, the “Kd (MST)” value was “drastic loss of GAA binding affinity”.

Regarding `NCCCC(=O)O` [GABA, γ-aminobutyric acid], the “Kd (MST)” value on TauT G62A mutant was “complete loss of the binding”. Moreover, the “transport activity for GABA” value with TauT^WT and variants [1] is recorded as “decrease in transport activity”. For the same compound, the “transport activity of GABA” value on TauT^WT and variants [2] is reported as “significant increase in the transport activity”.

For the compound `NCCS(=O)(=O)O` [Taurine, taurine], the taurine transport activity result with TauT^WT and variants [3] (Asn63, Ser301, Asn333 substituted with alanine or aspartate (Na1 site)) is on record as “complete loss of function”; with TauT^WT and variants [3] (mutations in Asp401 and Ser402 (Na2 site)), “weaken the substrate transport function”. For the same compound, in the experiment on TauT^WT and variants [3] (amino acid substitutions in Gly57, Phe58, Leu306), the “transport activity for taurine” value is “decrease in transport activity”. Further, the “transport activity of taurine” value on TauT^WT and variants [4] is reported as “significantly lower transport activity”. In addition, the “binding affinity (Kd, MST) of TauT^EM” value on TauT^EM is listed as “analogous to those of TauT^WT”.
